According to US4486602A, “Valienamine derivatives, their production and use” (Takeda Chemical Industries, Ltd., priority 1980, dated 1984):

Target: T1, α-glucosidase (yeast, type I) (Saccharomyces cerevisiae, UniProt P53341)
T1 construct: purchased Sigma Chemicals, U.S.A
Assay: α-glucosidase inhibitory activity, p-nitrophenyl-α-D-glucopyranoside as substrate
Format: biochemical
Conditions: not given
Method: The inhibitory activity of the compounds of this invention against α-glucosidase (yeast, type I, produced by Sigma Chemicals, U.S.A.), when p-nitrophenyl-α-D-glucopyranoside is used as a substrate, is determined by adding 0.5 ml of a solution of an inhibitor of this invention in 0.02M phosphate buffer (pH 6.8) and 0.25 ml of 0.01M p-nitrophenyl-α-D-glucopyranoside in the same buffer to 0.25 ml of a solution of α-glucosidase in the same buffer (0.005 mg/ml), allowing the reaction to proceed at 37° C. for 15 minutes, then adding 3 ml of 0.1M aqueous sodium carbonate solution to terminate the reaction, and measuring the absorbance of the reaction solution at 400 nm. The 50% inhibition concentration of the inhibitor is calculated from the inhibition rates (%) which are determined with inhibitory substance samples of three to five different concentrations.
(§1) When 0.05M maltose is used as a substrate, the inhibitory activity against maltase prepared from porcine intestinal mucosa is determined by measuring the amount of released D-glucose by use of glucose oxidase [Glucose B-Test Wako (a reagent for clinical diagnostic use for determining glucose, produced by Wako Pure Chemical Co. Japan)] to calculate the 50% inhibition concentration. The molar concentration required for 50% inhibition (IC50) of the α-glucosidase inhibitors represented by the formula [I], to inhibit activity of α-glucosidase (yeast), is shown in Table 1 and that to inhibit activity of maltase (porcine intestinal mucosa) is in Table 2.

T1 sequence (P53341 whole entry): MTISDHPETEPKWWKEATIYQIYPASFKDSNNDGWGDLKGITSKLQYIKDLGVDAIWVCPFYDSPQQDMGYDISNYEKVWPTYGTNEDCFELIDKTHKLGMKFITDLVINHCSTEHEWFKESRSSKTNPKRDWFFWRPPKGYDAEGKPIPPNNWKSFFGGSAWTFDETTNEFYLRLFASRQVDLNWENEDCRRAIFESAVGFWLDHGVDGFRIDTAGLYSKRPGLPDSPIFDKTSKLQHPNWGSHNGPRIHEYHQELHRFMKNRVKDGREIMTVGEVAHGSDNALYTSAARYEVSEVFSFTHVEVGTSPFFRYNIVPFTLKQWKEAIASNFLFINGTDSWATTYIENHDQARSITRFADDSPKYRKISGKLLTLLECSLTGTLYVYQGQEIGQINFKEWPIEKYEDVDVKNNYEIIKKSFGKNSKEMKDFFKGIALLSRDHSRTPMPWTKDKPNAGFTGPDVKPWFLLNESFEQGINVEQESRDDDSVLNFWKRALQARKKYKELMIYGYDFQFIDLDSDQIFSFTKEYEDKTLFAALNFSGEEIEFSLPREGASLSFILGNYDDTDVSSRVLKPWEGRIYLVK

| SMILES | IC50 |
| --- | --- |
| CC(Cc1ccccc1)N[C@H]1C=C(CO)[C@@H](O)[C@H](O)[C@H]1O (stereo partly drawn) [Example 21, N-(α-methylphenethyl)valienamine] | 0.13 µM |

Same assay, conditions: Table 1; α-glucosidase (yeast); pH 6.8, 37° C., 15 minutes; read-out: IC50 (molar concentration required for 50% inhibition)

| SMILES | IC50 |
| --- | --- |
| OCC1=C[C@H](NC[C@H](O)[C@@H](O)[C@H](O)CO)[C@H](O)[C@@H](O)[C@@H]1O | 110 µM |
| OCC1=C[C@H](NCCCc2ccccc2)[C@H](O)[C@@H](O)[C@@H]1O [drawing 18] | 2.2 µM |
| OCC1=C[C@H](NC[C@@H](O)[C@H](O)[C@H](O)CO)[C@H](O)[C@@H](O)[C@@H]1O | 120 µM |
| COc1ccccc1C(O)CN[C@H]1C=C(CO)[C@@H](O)[C@H](O)[C@H]1O (some centres unmarked) [drawing 24] | 0.38 µM |
| CC(C)=CCC/C(C)=C/CN[C@H]1C=C(CO)[C@@H](O)[C@H](O)[C@H]1O [drawing 27] | 1.7 µM |
| OCC1=C[C@H](NC(CO)[C@@H](O)[C@H](O)[C@H](O)CO)[C@H](O)[C@@H](O)[C@@H]1O (some centres unmarked) | 110 µM |
| OCC1=C[C@H](NC[C@H](O)[C@H](O)[C@H](O)CO)[C@H](O)[C@@H](O)[C@@H]1O | 90 µM |
| OCC1=C[C@H](NC[C@H](O)[C@@H](O)[C@@H](O)[C@H](O)CO)[C@H](O)[C@@H](O)[C@@H]1O | 160 µM |
| OCC1=C[C@H](NC(CO)CO)[C@H](O)[C@@H](O)[C@@H]1O [drawing 29] | 66 µM |
| OCC1=C[C@H](NC(CO)[C@@H](O)[C@H](O)[C@@H](O)CO)[C@H](O)[C@@H](O)[C@@H]1O (some centres unmarked) [drawing 37] | 130 µM |
| CCCCN[C@H]1C=C(CO)[C@@H](O)[C@H](O)[C@H]1O [CH2 CH2 CH2 CH3, N-n-butylvalienamine] | 21 µM |
| OCC1=C[C@H](NCC2CCCCC2)[C@H](O)[C@@H](O)[C@@H]1O | 0.38 µM |
| OCC1=C[C@H](NCCCCCc2ccccc2)[C@H](O)[C@@H](O)[C@@H]1O | 0.75 µM |
| OCC1=C[C@H](NC[C@@H](O)[C@@H](O)[C@H](O)[C@H](O)CO)[C@H](O)[C@@H](O)[C@@H]1O | 100 µM |
| CC(C)(C)c1cc(CN[C@H]2C=C(CO)[C@@H](O)[C@H](O)[C@H]2O)cc(C(C)(C)C)c1O | 12 µM |
| CC(N[C@H]1C=C(CO)[C@@H](O)[C@H](O)[C@H]1O)c1ccccc1 (some centres unmarked) | 13 µM |

| SMILES | IC50 |
| --- | --- |
| CC(CN[C@H]1C=C(CO)[C@@H](O)[C@H](O)[C@H]1O)c1ccccc1 (some centres unmarked) | 13 µM |
| OCC1=C[C@H](NCc2ccco2)[C@H](O)[C@@H](O)[C@@H]1O | 150 µM |
| OCC1=C[C@H](NC[C@H](O)[C@@H](O)[C@H](O)[C@H](O)CO)[C@H](O)[C@@H](O)[C@@H]1O | 110 µM |
| OCC1=C[C@H](NCCc2ccccc2)[C@H](O)[C@@H](O)[C@@H]1O [drawing 15] | 1.8 µM |
| OCC1=C[C@H](NCCCCc2ccccc2)[C@H](O)[C@@H](O)[C@@H]1O [drawing 20] | 0.98 µM |
| OCC1=C[C@H](NCc2cccnc2)[C@H](O)[C@@H](O)[C@@H]1O | 56 µM |
| OCC1=C[C@H](NCC(O)c2ccccc2)[C@H](O)[C@@H](O)[C@@H]1O (some centres unmarked) [drawing 16] | 1.1 µM |
| OCC1=C[C@H](NCC=Cc2ccccc2)[C@H](O)[C@@H](O)[C@@H]1O | 20 µM |
| OCC1=C[C@H](NCc2cccs2)[C@H](O)[C@@H](O)[C@@H]1O | 38 µM |
| COc1ccc(CN[C@H]2C=C(CO)[C@@H](O)[C@H](O)[C@H]2O)cc1 | 18 µM |
| O=C(O)c1ccc(CN[C@H]2C=C(CO)[C@@H](O)[C@H](O)[C@H]2O)cc1 | 150 µM |
| OCC1=C[C@H](NCc2ccccc2)[C@H](O)[C@@H](O)[C@@H]1O | 9.2 µM |
| OCC1=C[C@H](NCCCOc2ccccc2)[C@H](O)[C@@H](O)[C@@H]1O | 1.1 µM |
| Cc1ccc(CN[C@H]2C=C(CO)[C@@H](O)[C@H](O)[C@H]2O)cc1 | 20 µM |
| OCC1=C[C@H](NCC(c2ccccc2)c2ccccc2)[C@H](O)[C@@H](O)[C@@H]1O | 0.038 µM |
| OCC1=C[C@H](NCc2ccc(O)cc2)[C@H](O)[C@@H](O)[C@@H]1O [drawing 23] | 5 µM |

Test system: α-glucoside hydrolase
Assay: suppression of α-glucoside hydrolase function (statement in words)
Format: biochemical
Conditions: not given

| SMILES | action of suppressing the function of α-glucoside hydrolase |
| --- | --- |
| N[C@H]1C=C(CO)[C@@H](O)[C@H](O)[C@H]1O [valienamine] | possesses a highly valuable action of suppressing the function of α-glucoside hydrolase |

Target: maltase (porcine intestinal mucosa)
Assay: inhibitory activity against maltase, 0.05M maltose as substrate
Format: biochemical
Conditions: Table 2, read-out: IC50 (molar concentration required for 50% inhibition)
Method: as §1

| SMILES | IC50 |
| --- | --- |
| CC(Cc1ccccc1)N[C@H]1C=C(CO)[C@@H](O)[C@H](O)[C@H]1O (some centres unmarked) [drawing 46] | 2.4 µM |
| COc1ccccc1C(O)CN[C@H]1C=C(CO)[C@@H](O)[C@H](O)[C@H]1O (some centres unmarked) [drawing 47] | 3.1 µM |
| OCC1=C[C@H](NC(CO)[C@@H](O)[C@H](O)[C@@H](O)CO)[C@H](O)[C@@H](O)[C@@H]1O (some centres unmarked) [drawing 50] | 14 µM |
| CC(C)=CCC/C(C)=C/CN[C@H]1C=C(CO)[C@@H](O)[C@H](O)[C@H]1O [drawing 48] | 5.2 µM |
| OCC1=C[C@H](NCc2ccc(O)c(O)c2)[C@H](O)[C@@H](O)[C@@H]1O | 8.1 µM |
| OCC1=C[C@H](NCCCc2ccccc2)[C@H](O)[C@@H](O)[C@@H]1O [drawing 39] | 20 µM |
| OCC1=C[C@H](NCc2ccc(O)cc2)[C@H](O)[C@@H](O)[C@@H]1O [drawing 43] | 19 µM |
| OCC1=C[C@H](NCc2ccc(Br)cc2)[C@H](O)[C@@H](O)[C@@H]1O | 75 µM |
| OCC1=C[C@H](NCC(O)COc2ccccc2)[C@H](O)[C@@H](O)[C@@H]1O (some centres unmarked) | 24 µM |
| OCC1=C[C@H](NCCc2ccccc2)[C@H](O)[C@@H](O)[C@@H]1O [drawing 38] | 11 µM |
| OCC1=C[C@H](NC(CO)CO)[C@H](O)[C@@H](O)[C@@H]1O [drawing 49] | 14 µM |
| OCC1=C[C@H](NC(CO)c2ccccc2)[C@H](O)[C@@H](O)[C@@H]1O (some centres unmarked) | 14 µM |
| OCC1=C[C@H](NCC(O)c2ccccc2)[C@H](O)[C@@H](O)[C@@H]1O (some centres unmarked) [drawing 41] | 3.2 µM |
| OCC1=C[C@H](NCCCCc2ccccc2)[C@H](O)[C@@H](O)[C@@H]1O [drawing 40] | 80 µM |
| OCC1=C[C@H](NC(CO)C(O)c2ccccc2)[C@H](O)[C@@H](O)[C@@H]1O (some centres unmarked) | 9.6 µM |

Target: T2, saccharase (porcine intestinal mucosa) (Sus scrofa, UniProt P56729)
T2 construct: saccharase prepared from porcine intestinal mucosa; from tissue; host or cells: porcine intestinal mucosa
Assay: inhibitory activity against saccharase
Format: biochemical
Conditions: not given
Method: The inhibitory activity against saccharase prepared from porcine intestinal mucosa is determined by a similar method to that against maltase in accordance with the method described in Acta. Chem. Scand., 12, 1997-2006 (1958).

T2 sequence (P56729 with tags, fused parts or gaps limits assumed): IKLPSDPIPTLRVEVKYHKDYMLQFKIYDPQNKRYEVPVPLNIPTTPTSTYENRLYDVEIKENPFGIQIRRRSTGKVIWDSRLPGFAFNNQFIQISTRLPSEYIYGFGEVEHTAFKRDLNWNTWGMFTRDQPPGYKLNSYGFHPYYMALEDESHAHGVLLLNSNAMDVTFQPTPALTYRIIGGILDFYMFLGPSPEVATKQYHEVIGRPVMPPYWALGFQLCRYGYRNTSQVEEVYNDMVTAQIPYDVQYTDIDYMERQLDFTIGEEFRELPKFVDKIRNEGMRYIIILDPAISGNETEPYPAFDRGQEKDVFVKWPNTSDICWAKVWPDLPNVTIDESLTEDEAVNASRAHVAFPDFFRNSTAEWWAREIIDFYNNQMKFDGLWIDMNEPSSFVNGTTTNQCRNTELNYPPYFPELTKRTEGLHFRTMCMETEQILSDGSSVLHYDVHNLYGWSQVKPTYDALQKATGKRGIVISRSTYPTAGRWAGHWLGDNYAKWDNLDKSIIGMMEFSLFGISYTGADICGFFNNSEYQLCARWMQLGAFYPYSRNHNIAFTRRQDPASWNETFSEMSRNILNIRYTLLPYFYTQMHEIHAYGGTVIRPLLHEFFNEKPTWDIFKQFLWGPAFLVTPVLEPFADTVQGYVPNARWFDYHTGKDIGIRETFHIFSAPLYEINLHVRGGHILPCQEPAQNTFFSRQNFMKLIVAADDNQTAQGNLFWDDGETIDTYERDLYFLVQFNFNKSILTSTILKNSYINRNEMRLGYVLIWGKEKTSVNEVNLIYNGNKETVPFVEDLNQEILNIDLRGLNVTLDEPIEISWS
T2 sequence (P56729 with tags, fused parts or gaps partner limits assumed): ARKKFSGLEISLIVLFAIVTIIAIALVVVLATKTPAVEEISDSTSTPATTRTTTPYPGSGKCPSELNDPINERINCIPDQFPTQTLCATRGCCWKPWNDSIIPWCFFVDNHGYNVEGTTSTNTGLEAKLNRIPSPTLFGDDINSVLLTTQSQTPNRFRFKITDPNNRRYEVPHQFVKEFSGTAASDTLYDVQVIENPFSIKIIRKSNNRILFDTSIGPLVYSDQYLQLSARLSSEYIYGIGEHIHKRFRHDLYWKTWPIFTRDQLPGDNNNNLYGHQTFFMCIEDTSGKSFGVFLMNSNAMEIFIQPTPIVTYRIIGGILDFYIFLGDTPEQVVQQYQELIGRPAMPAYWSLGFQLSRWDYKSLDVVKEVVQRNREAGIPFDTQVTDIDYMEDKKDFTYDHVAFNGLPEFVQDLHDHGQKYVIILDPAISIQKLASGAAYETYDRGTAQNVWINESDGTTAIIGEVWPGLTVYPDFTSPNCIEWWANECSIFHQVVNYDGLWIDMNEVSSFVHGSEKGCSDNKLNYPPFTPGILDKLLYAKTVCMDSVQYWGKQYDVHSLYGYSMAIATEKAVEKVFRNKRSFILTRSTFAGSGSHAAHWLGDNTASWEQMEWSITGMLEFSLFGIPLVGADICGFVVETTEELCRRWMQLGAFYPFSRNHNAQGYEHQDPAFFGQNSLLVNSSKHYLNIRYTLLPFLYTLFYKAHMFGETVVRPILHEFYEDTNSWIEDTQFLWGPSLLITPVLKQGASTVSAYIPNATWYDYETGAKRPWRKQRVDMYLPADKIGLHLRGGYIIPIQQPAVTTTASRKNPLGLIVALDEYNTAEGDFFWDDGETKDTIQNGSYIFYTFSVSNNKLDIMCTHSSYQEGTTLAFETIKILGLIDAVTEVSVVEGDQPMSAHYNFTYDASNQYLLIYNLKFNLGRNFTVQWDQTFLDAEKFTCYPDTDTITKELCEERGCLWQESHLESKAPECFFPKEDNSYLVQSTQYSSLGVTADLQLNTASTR

| SMILES | IC50 |
| --- | --- |
| OCC1=C[C@H](NC2CCCCC2O)[C@H](O)[C@@H](O)[C@@H]1O (some centres unmarked) [Example 36, N-(2-hydroxycyclohexyl)valienamine] | 0.17 µM |
